{"source": "paper PMC3062711", "about": "(Biochimica et biophysica acta, 2010)", "biological_target": "human TRPA1 channel (hTRPA1) (Homo sapiens, UniProt O75762)", "sequence (O75762 whole entry)": "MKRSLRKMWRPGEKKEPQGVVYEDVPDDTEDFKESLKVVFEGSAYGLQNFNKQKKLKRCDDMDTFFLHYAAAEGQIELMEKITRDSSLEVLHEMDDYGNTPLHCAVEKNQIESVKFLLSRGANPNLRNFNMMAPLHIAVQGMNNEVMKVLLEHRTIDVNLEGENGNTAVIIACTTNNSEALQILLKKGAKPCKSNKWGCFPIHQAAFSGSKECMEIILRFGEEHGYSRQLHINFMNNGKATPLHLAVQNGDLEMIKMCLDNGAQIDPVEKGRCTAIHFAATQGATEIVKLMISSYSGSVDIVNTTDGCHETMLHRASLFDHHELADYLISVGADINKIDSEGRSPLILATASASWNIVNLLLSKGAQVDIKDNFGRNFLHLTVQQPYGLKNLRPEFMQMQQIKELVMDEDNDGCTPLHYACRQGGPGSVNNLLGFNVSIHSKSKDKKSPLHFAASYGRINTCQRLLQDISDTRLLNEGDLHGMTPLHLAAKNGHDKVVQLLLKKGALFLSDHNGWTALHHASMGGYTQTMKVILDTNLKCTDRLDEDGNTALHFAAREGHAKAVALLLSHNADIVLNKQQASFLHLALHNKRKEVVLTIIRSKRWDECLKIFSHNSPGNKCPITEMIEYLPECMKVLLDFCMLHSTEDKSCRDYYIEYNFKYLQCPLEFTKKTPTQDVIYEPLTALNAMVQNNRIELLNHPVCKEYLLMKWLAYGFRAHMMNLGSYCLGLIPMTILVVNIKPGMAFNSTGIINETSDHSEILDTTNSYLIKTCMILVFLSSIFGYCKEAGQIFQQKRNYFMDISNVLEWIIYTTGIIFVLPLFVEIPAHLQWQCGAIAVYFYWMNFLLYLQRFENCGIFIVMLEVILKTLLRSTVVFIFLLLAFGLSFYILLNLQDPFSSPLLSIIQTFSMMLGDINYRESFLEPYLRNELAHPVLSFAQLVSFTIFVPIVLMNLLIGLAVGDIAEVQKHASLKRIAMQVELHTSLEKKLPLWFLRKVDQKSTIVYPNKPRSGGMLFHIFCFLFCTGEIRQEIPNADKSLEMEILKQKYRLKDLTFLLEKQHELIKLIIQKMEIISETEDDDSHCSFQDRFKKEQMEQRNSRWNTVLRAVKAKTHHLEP", "assay": "inside-out patch clamp recording, hTRPA1 expressed in HEK293T cells", "assay_type": "cell-based", "data": [{"substance": "Ruthenium red [RR]", "values": [{"measurement": "IC50", "value": "~1800", "unit": "nM"}]}]}
